Measured values published in article PMC11432330, “Novel Drug-like HsrA Inhibitors Exhibit Potent Narrow-Spectrum Antimicrobial Activities against Helicobacter pylori” (International Journal of Molecular Sciences, 2024).
≈ marks a conversion by molar mass, not a printed value. Read-outs that look alike come from different tables or passages of the source.

Key:
[1] = system: H. pylori strain ATCC 700392; assay: Time-kill kinetic assay; type: cell-based, Helicobacter pylori; settings: 4 × MIC, 10^4 CFU/mL
Description: Time-kill kinetics of selected HsrA inhibitors were carried out as previously described, with slight modifications. Briefly, fresh grown cells of H. pylori strain ATCC 700392 were resuspended in BHI + FBS at 1.0 × 10^4 CFU/mL and exposed to 4 × MIC of each compound. Bacteria exposed to DMSO (vehicle) instead of the HsrA inhibitors were included as a control. All cultures were incubated at 37 °C under microaerobic conditions, and aliquots were taken after 0, 2, 4, 8, and 24 h of exposure for CFU determination. Experiments were performed twice in triplicate. Results were presented as log10 CFU/mL versus hours of exposure. Differences in H. pylori survival were subjected to statistical analysis by using the Mann–Whitney U test.

[2] = target: HsrA (Helicobacter pylori, UniProt O25684); assay: Isothermal titration calorimetry (ITC) with HsrA; type: binding; settings: for ΔG: absolute error 0.1; for ΔH: absolute error 0.4
Chain of HsrA (O25684 entry or part of it): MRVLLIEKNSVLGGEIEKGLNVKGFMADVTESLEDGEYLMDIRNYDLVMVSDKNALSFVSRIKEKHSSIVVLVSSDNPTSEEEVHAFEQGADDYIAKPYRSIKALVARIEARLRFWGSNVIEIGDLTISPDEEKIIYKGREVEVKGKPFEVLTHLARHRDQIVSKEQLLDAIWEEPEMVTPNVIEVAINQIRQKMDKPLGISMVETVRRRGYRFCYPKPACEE
Description: Molecular interactions of the selected ligands with proteins HsrA or CosR were studied by isothermal titration calorimetry (ITC), as previously described. Titrations were assessed in a high-sensitivity MicroCal Auto-iTC200 calorimeter (Malvern Panalytical, Malvern, UK). Experiments were carried out at 25 °C in freshly prepared buffer containing 50 mM Tris-HCl [pH 8], 150 mM NaCl, 10% glycerol, and 1% DMSO. A 20 µM solution of protein was located in the calorimetric cell. Then, a sequence of 19 injections of 2 µL volume each with a 200 µM solution of the corresponding ligand was programmed with a time spacing of 150 s, a stirring speed of 750 rpm, and a reference power of 10 µcal/s in the sample cell. Thermodynamic properties such as binding stoichiometry, dissociation constants, and binding enthalpies were calculated by nonlinear least-squares regression data analysis using Origin 7.0 software.

[3] = system: H. pylori HsrA; assay: Fluorescence-based thermal shift assay (HTS of Maybridge HitFinder library) for HsrA ligands; type: binding, Helicobacter pylori; settings: 10 µM HsrA, 250 μM compound, vs DMSO controls
Description: High-throughput screening (HTS) of the Maybridge HitFinder^TM chemical library for H. pylori HsrA ligands was assessed by a fluorescence-based thermal shift assay, according to previously described procedures. Briefly, a reaction mixture containing 50 mM Tris-HCl (pH 8), 150 mM NaCl, 10% glycerol, 5 mM DTT, SYPRO® Orange ready-to-use fluorescent stain (Thermo Fisher Scientific) at a final concentration of 10 ×, and 10 µM HsrA was freshly prepared. Next, 90 μL was dispensed in every well of V-shape 96-well plates ABgene^TM Thermo-Fast^TM 96 (Thermo Fisher Scientific). Wells of columns 1 and 12 received 10 μL of DMSO (vehicle) and were used as the reference controls. The rest of the wells (columns 2 to 11) received 2.5 μL of four different compounds from the HitFinder library (250 μM as final concentration each). The unfolding curve corresponding to each well was registered from 25 °C to 75 °C in 1 °C steps using an Mx3005P™ qPCR System (Agilent Technologies, Inc., Santa Clara, CA, USA), and analyzed by Origin 7.0 (OriginLab, Northampton, MA, USA) using a homemade script that determined the midpoint temperature of unfolding (Tm).

[4] = system: H. pylori ATCC 43504 (MTZ-R); assay: MIC/MBC, broth microdilution; type: cell-based, Helicobacter pylori; settings: Helicobacter pylori, ATCC43504
Description: (§1) The antimicrobial activity of the HsrA inhibitors was evaluated by the determination of the minimal inhibitory concentration (MIC) against four different strains of H. pylori: ATCC 700392 (aka 26695), ATCC 43504 (MTZ-resistant reference strain), ATCC 700684 (CLR-resistant reference strain), and Donostia 2 (LVX-resistant clinical isolate). The MICs were determined by the broth microdilution method, as previously described. Briefly, H. pylori strains were grown in blood agar at 37 °C for 72 h under microaerobic conditions. Fresh inoculums adjusted at OD600 = 0.01 [~10^6 colony forming units (CFU) per mL] in BHI broth supplemented with 4% fetal bovine serum (BHI + FBS) were prepared and immediately exposed to final concentrations between 64 and 0.031 mg/L of each compound of interest. The compound solvent (DMSO) as well as conventional antibiotics (MTZ, CLR, LVX) were included as controls. […] Each experiment was performed twice in triplicate. The MIC and MBC values of the selected compounds against C. jejuni ATCC 33560 were determined by using the same method and culture conditions described for the H. pylori strains.

[5] = system: H. pylori Donostia 2 (LVX-R); assay: MIC/MBC, broth microdilution; type: cell-based, Helicobacter pylori; settings: Helicobacter pylori
Description: as §1

[6] = system: H. pylori ATCC 700392 (26695); assay: MIC/MBC, broth microdilution; type: cell-based, Helicobacter pylori; settings: Helicobacter pylori, ATCC700392
Description: as §1

[7] = system: H. pylori ATCC 700684 (CLR-R); assay: MIC/MBC, broth microdilution; type: cell-based, Helicobacter pylori; settings: Helicobacter pylori; for MBC: ATCC700684, read-out: MBC; for MIC: ATCC700684, read-out: MIC
Description: as §1

[8] = system: H. pylori ATCC 700392; assay: Checkerboard assay with first-line antibiotics; type: cell-based, Helicobacter pylori
Description: Potential synergisms between the selected HsrA inhibitors and first-line antibiotics were evaluated by using checkerboard assays, as previous described. Briefly, the antimicrobials to be tested were twofold serially diluted in BHI + FBS using independent sterile microtiter plates. Then, concentration gradients from two antimicrobials were aseptically mixed at equal volumes in a new microtiter plate, resulting in a matrix of 77 unique combinations of both compounds. Next, freshly prepared inoculum of H. pylori ATCC 700392 adjusted at 2 × 10^6 CFU/mL in BHI+ FBS were added to all wells, and plates were incubated for 72 h at 37 °C under microaerophilic conditions. […] The fractional inhibitory concentration index (FICI) for each antimicrobial combination was calculated as previously described. Values of FICI ≤ 0.5, 0.5 < FICI ≤ 1, 1 < FICI ≤ 4, and FICI > 4 were considered as indicative of synergistic, additive, neutral, or antagonist interactions, respectively.

[9] = H. pylori ATCC 43504 (MTZ-R), read-out: MBC
[10] = H. pylori ATCC 43504 (MTZ-R), read-out: MIC
[11] = H. pylori Donostia 2 (LVX-R), read-out: MBC
[12] = H. pylori Donostia 2 (LVX-R), read-out: MIC
[13] = H. pylori ATCC 700392 (26695), read-out: MBC
[14] = H. pylori ATCC 700392 (26695), read-out: MIC
[15] = in combination with CLR (clarithromycin)
[16] = in combination with LVX (levofloxacin)
[17] = in combination with MTZ (metronidazole)
[18] = ITC, 25 °C, pH 8, relative error 15%, read-out: Kd

SMILES	Exposure time after which 10^4 H. pylori cells were completely killed [1]	n (stoichiometry) ([2]; ITC, 25 °C, pH 8)	ΔG ([2]; ITC, 25 °C)	ΔH ([2]; ITC, 25 °C)	MBC [4, 9]	MIC [4, 10]	MBC [5, 11]	MIC [5, 12]	MBC [6, 13]	MBC [7]	MIC [7]	FICI [8, 15]	FICantibiotic [8, 15]	FICinhibitor [8, 15]	FICI [8, 16]	FICantibiotic [8, 16]	FICinhibitor [8, 16]	FICI [8, 17]	FICantibiotic [8, 17]	FICinhibitor [8, 17]	also measured
CSc1cccc(NC(=S)NCCNc2c([N+](=O)[O-])cc(C(F)(F)F)cc2[N+](=O)[O-])c1 [Ligand IV]	4 h	0.9	–7.4 kcal/mol	–1.6 kcal/mol	4 µg/mL (≈ 8.41 µM)	2 µg/mL (≈ 4.21 µM)	4 µg/mL (≈ 8.41 µM)	4 µg/mL (≈ 8.41 µM)	4 µg/mL (≈ 8.41 µM)	4 µg/mL (≈ 8.41 µM)	4 µg/mL (≈ 8.41 µM)	2	1	1	2	1	1	2	1	1	Kd [2]: 3.9 µM; ΔTm (upshift of midpoint temperature of unfolding of HsrA) [3]: 16 °C; MIC [6, 14]: 2 µg/mL (≈ 4.21 µM)
CSc1cccc(Nc2nc(C(C)(C)C)cs2)c1 [Ligand XI]	4 h	1.1	–5.9 kcal/mol	–3.1 kcal/mol	4 µg/mL (≈ 14.4 µM)	2 µg/mL (≈ 7.18 µM)	4 µg/mL (≈ 14.4 µM)	2 µg/mL (≈ 7.18 µM)	4 µg/mL (≈ 14.4 µM)	4 µg/mL (≈ 14.4 µM)	2 µg/mL (≈ 7.18 µM)	0.75	0.25	0.5	2	1	1	0.563	0.5	0.063	Kd [2, 18]: 49 µM; MIC [6, 14]: 4 µg/mL (≈ 14.4 µM); Interaction [8, 16]: Neutral (no interaction or neutral (FICI > 1 to ≤4))
NC(=NOC(=O)Nc1ccc(Cl)cc1)c1csc([N+](=O)[O-])c1 [Ligand V, N′-{[(4-chloroanilino)carbonyl]}oxy-5-nitrothiophene-3-carboximidamide]	2 h	1.0	–6.7 kcal/mol	–1.9 kcal/mol	–	–	–	–	–	0.031 µg/mL (≈ 0.091 µM)	0.031 µg/mL (≈ 0.091 µM)	0.56	0.5	0.06	2	1	1	0.625	0.125	0.5	Affinity to HsrA relative to ligand XII ([2]; ITC): > 3 fold; Kd [2, 18]: 13 µM; MBC [4]: 0.125 µg/mL (≈ 0.367 µM); MIC [4]: 0.125 µg/mL (≈ 0.367 µM); MBC [5]: 0.125 µg/mL (≈ 0.367 µM); MIC [5]: 0.125 µg/mL (≈ 0.367 µM); MBC [6]: 0.125 µg/mL (≈ 0.367 µM); MIC [6]: 0.063 µg/mL (≈ 0.185 µM); Interaction [8, 16]: Neutral (no interaction or neutral (FICI > 1 to ≤4))
N#C/C(=C\C=C\c1ccccc1)c1nc2ccccc2[nH]1 [Ligand XII]	4 h	1.0	–6.0 kcal/mol	0.8 kcal/mol	0.5 µg/mL (≈ 1.84 µM)	0.5 µg/mL (≈ 1.84 µM)	1 µg/mL (≈ 3.69 µM)	1 µg/mL (≈ 3.69 µM)	2 µg/mL (≈ 7.37 µM)	0.5 µg/mL (≈ 1.84 µM)	0.5 µg/mL (≈ 1.84 µM)	0.75	0.25	0.5	1	0.5	0.5	0.5	0.25	0.25	Kd [2, 18]: 43 µM; ΔTm (upshift of midpoint temperature of unfolding of HsrA) [3]: 9 °C; MIC [6, 14]: 2 µg/mL (≈ 7.37 µM); Interaction [8, 15]: Additive (additive (FICI > 0.5 to ≤1))
OC1(C(F)(F)F)CC(c2ccc3c(c2)Nc2ccccc2S3)=NN1 (stereo not shown) [Ligand VIII]	2 h	0.9	–6.8 kcal/mol	0.8 kcal/mol	2 µg/mL (≈ 5.69 µM)	1 µg/mL (≈ 2.85 µM)	2 µg/mL (≈ 5.69 µM)	2 µg/mL (≈ 5.69 µM)	2 µg/mL (≈ 5.69 µM)	2 µg/mL (≈ 5.69 µM)	1 µg/mL (≈ 2.85 µM)	0.53	0.5	0.03	2	1	1	0.625	0.5	0.125	Kd [2, 18]: 10 µM; MIC [6, 14]: 1 µg/mL (≈ 2.85 µM); Interaction [8, 16]: Neutral (no interaction or neutral (FICI > 1 to ≤4))
N#Cc1cnn(-c2ccc(C(F)(F)F)cc2[N+](=O)[O-])c1N [Ligand I]	8 h	1.0	–6.7 kcal/mol	–1.2 kcal/mol	1 µg/mL (≈ 3.36 µM)	1 µg/mL (≈ 3.36 µM)	2 µg/mL (≈ 6.73 µM)	2 µg/mL (≈ 6.73 µM)	4 µg/mL (≈ 13.5 µM)	4 µg/mL (≈ 13.5 µM)	4 µg/mL (≈ 13.5 µM)	2	1	1	2	1	1	0.625	0.125	0.5	Kd [2, 18]: 13 µM; MIC [6, 14]: 4 µg/mL (≈ 13.5 µM); Interaction [8, 15]: Neutral (no interaction or neutral (FICI > 1 to ≤4)); Interaction [8, 16]: Neutral (no interaction or neutral (FICI > 1 to ≤4)); Interaction [8, 17]: Additive (additive (FICI > 0.5 to ≤1))
